Laboratory results from patent publication US20230085307A1, “PYRIDAZINONE COMPOUND AND HERBICIDE” (NISSAN CHEMICAL CORPORATION, priority 2019, published 2023).

Tests used:
Japanese bulrush = assay: Test Example 1: herbicidal activity, application before weed generation under submerged conditions (Table 16, symbol B); format: in vivo, Japanese bulrush (Schoenoplectus juncoides)
Outline: (§1)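 Alluvial soil was flooded to 4 cm depth, weed seeds were sown mixed and 2.5-leaf rice seedlings were transplanted. On sowing day, the compound's emulsion, diluted in water to a set dose, was applied to the water surface. Plants grew at 25–30 °C and were scored 0–5 after three weeks.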

Italian ryegrass = assay: Test Example 4: herbicidal effect by soil treatment (Table 19, symbol K); format: in vivo, Italian ryegrass (Lolium multiflorum)
Outline: (§2)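 Seeds were sown in sterilized diluvial soil and covered with about 1.5 cm of soil. An emulsion formulation diluted with water to a predetermined herbicide amount was sprayed evenly onto the soil surface. Plants grew in a greenhouse at 25° C. to 30° C., and the effect was scored three weeks after application using criteria from an earlier test.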

green foxtail [1] = assay: Test Example 5: herbicidal effect by foliage application, plastic box (Table 20, symbol G); format: in vivo, green foxtail (Setaria viridis); settings: foliage application, three weeks after application
Outline: (§3)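 Plants sown in sterilized diluvial soil and grown 14 days in a greenhouse at 25° C to 30° C, then sprayed on the foliage with the compound's emulsion diluted in water to a predetermined herbicide amount. Injury to weeds and crops scored three weeks after application on a visual rating scale.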

barnyard grass [2] = assay: Test Example 3: herbicidal effect by foliage application, Wagner pot (Table 18, symbol H); format: in vivo, barnyard grass (Echinochloa crus-galli)
Outline: (§4)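 Plants were sown in alluvial soil held under 0.1–0.5 cm standing water and grown 14 days in a greenhouse at 25–30 °C. An emulsifiable formulation, water-diluted to the set dose, was then sprayed onto the foliage, and effects were scored three weeks later using previously defined criteria.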

velvetleaf [3] = assay: Test Example 4: herbicidal effect by soil treatment (Table 19, symbol M); format: in vivo, velvetleaf (Abutilon theophrasti)
Outline: as §2

windgrass [4] = assay: Test Example 4: herbicidal effect by soil treatment (Table 19, symbol L); format: in vivo, windgrass (Apera spica-venti)
Outline: as §2

late watergrass = assay: Test Example 1: herbicidal activity, application before weed generation under submerged conditions (Table 16, symbol A); format: in vivo, late watergrass (Echinochloa oryzicola)
Outline: as §1

velvetleaf [5] = assay: Test Example 5: herbicidal effect by foliage application, plastic box (Table 20, symbol M); format: in vivo, velvetleaf (Abutilon theophrasti); settings: foliage application, three weeks after application
Outline: as §3

wild oat = assay: Test Example 5: herbicidal effect by foliage application, plastic box (Table 20, symbol I); format: in vivo, wild oat (Avena fatua); settings: foliage application, three weeks after application
Outline: as §3

southern crabgrass [6] = assay: Test Example 4: herbicidal effect by soil treatment (Table 19, symbol F); format: in vivo, southern crabgrass (Digitaria ciliaris)
Outline: as §2

blackgrass = assay: Test Example 5: herbicidal effect by foliage application, plastic box (Table 20, symbol J); format: in vivo, blackgrass (Alopecurus myosuroides); settings: foliage application, three weeks after application
Outline: as §3

green foxtail [7] = assay: Test Example 4: herbicidal effect by soil treatment (Table 19, symbol G); format: in vivo, green foxtail (Setaria viridis)
Outline: as §2

southern crabgrass [8] = assay: Test Example 5: herbicidal effect by foliage application, plastic box (Table 20, symbol F); format: in vivo, southern crabgrass (Digitaria ciliaris); settings: foliage application, three weeks after application
Outline: as §3

rice flat sedge = assay: Test Example 3: herbicidal effect by foliage application, Wagner pot (Table 18, symbol E); format: in vivo, rice flat sedge (Cyperus iria)
Outline: as §4

windgrass [9] = assay: Test Example 5: herbicidal effect by foliage application, plastic box (Table 20, symbol L); format: in vivo, windgrass (Apera spica-venti); settings: foliage application, three weeks after application
Outline: as §3

redroot pigweed = assay: Test Example 5: herbicidal effect by foliage application, plastic box (Table 20, symbol N); format: in vivo, redroot pigweed (Amaranthus retroflexus); settings: foliage application, three weeks after application
Outline: as §3

barnyard grass [10] = assay: Test Example 5: herbicidal effect by foliage application, plastic box (Table 20, symbol H); format: in vivo, barnyard grass (Echinochloa crus-galli); settings: foliage application, three weeks after application
Outline: as §3

persian speedwell = assay: Test Example 4: herbicidal effect by soil treatment (Table 19, symbol R); format: in vivo, Persian speedwell (Veronica persica)
Outline: as §2

[11] = amount of applied herbicide 310 g/ha
[12] = amount of applied herbicide 320 g/ha

| SMILES | Herbicidal effect, B: Japanese bulrush (Japanese bulrush; [12]) | K: Italian ryegrass, herbicidal effect grade (Italian ryegrass; [12]) | G: green foxtail, herbicidal effect grade (green foxtail [1]; 320 g/ha) | herbicidal effect on barnyard grass (H) (barnyard grass [2]; 320 g/ha) | M: velvetleaf, herbicidal effect grade (velvetleaf [3]; [12]) | L: windgrass, herbicidal effect grade (windgrass [4]; [12]) | Herbicidal effect, A: late watergrass (late watergrass; [12]) | M: velvetleaf, herbicidal effect grade (velvetleaf [5]; 320 g/ha) | I: wild oat, herbicidal effect grade (wild oat; 320 g/ha) | F: southern crabgrass, herbicidal effect grade (southern crabgrass [6]; [12]) | J: blackgrass, herbicidal effect grade (blackgrass; 320 g/ha) | G: green foxtail, herbicidal effect grade (green foxtail [7]; [12]) | F: southern crabgrass, herbicidal effect grade (southern crabgrass [8]; 320 g/ha) | herbicidal effect on rice flat sedge (E) (rice flat sedge; 320 g/ha) | L: windgrass, herbicidal effect grade (windgrass [9]; 320 g/ha) | N: redroot pigweed, herbicidal effect grade (redroot pigweed; 320 g/ha) | H: barnyard grass, herbicidal effect grade (barnyard grass [10]; 320 g/ha) | R: persian speedwell, herbicidal effect grade (persian speedwell; [12]) | other results |
| --- | --- | --- | --- | --- | --- | --- | --- | --- | --- | --- | --- | --- | --- | --- | --- | --- | --- | --- | --- |
| CCCC(=O)Oc1c(C)nn(C)c(=O)c1-c1c(-c2ccccc2OC)sc2cc(OCC)ccc12 [3-090] | – | – | – | – | – | – | – | – | – | – | – | – | – | – | – | – | – | – | Herbicidal effect, B: Japanese bulrush (Japanese bulrush; [11]): 5 (Herbicidal rate of 90% or more (almost completely withered)); K: Italian ryegrass, herbicidal effect grade (Italian ryegrass; [11]): 4 (Herbicidal rate of 70% or more and less than 90%); G: green foxtail, herbicidal effect grade (green foxtail [1]; 310 g/ha): 4 (Herbicidal rate of 70% or more and less than 90%); herbicidal effect on barnyard grass (H) (barnyard grass [2]; 310 g/ha): 5 (Herbicidal rate of 90% or more (almost completely withered)); M: velvetleaf, herbicidal effect grade (velvetleaf [3]; [11]): 3 (Herbicidal rate of 40% or more and less than 70%); L: windgrass, herbicidal effect grade (windgrass [4]; [11]): 0 (Herbicidal rate of 5% or less (almost no effect)); Herbicidal effect, A: late watergrass (late watergrass; [11]): 5 (Herbicidal rate of 90% or more (almost completely withered)); M: velvetleaf, herbicidal effect grade (velvetleaf [5]; 310 g/ha): 5 (Herbicidal rate of 90% or more (almost completely withered)); I: wild oat, herbicidal effect grade (wild oat; 310 g/ha): 4 (Herbicidal rate of 70% or more and less than 90%); F: southern crabgrass, herbicidal effect grade (southern crabgrass [6]; [11]): 3 (Herbicidal rate of 40% or more and less than 70%); J: blackgrass, herbicidal effect grade (blackgrass; 310 g/ha): 4 (Herbicidal rate of 70% or more and less than 90%); G: green foxtail, herbicidal effect grade (green foxtail [7]; [11]): 3 (Herbicidal rate of 40% or more and less than 70%); F: southern crabgrass, herbicidal effect grade (southern crabgrass [8]; 310 g/ha): 3 (Herbicidal rate of 40% or more and less than 70%); herbicidal effect on rice flat sedge (E) (rice flat sedge; 310 g/ha): 5 (Herbicidal rate of 90% or more (almost completely withered)); L: windgrass, herbicidal effect grade (windgrass [9]; 310 g/ha): 5 (Herbicidal rate of 90% or more (almost completely withered)); N: redroot pigweed, herbicidal effect grade (redroot pigweed; 310 g/ha): 5 (Herbicidal rate of 90% or more (almost completely withered)); H: barnyard grass, herbicidal effect grade (barnyard grass [10]; 310 g/ha): 5 (Herbicidal rate of 90% or more (almost completely withered)); R: persian speedwell, herbicidal effect grade (persian speedwell; [11]): 5 (Herbicidal rate of 90% or more (almost completely withered)) |
| CCOc1ccc2c(-c3c(O)c(C)nn(C)c3=O)c(-c3ccc(OC)cc3)sc2c1 [3-091] | 4 (Herbicidal rate of 70% or more and less than 90%) | 0 (Herbicidal rate of 5% or less (almost no effect)) | 0 (Herbicidal rate of 5% or less (almost no effect)) | 2 (Herbicidal rate of 20% or more and less than 40%) | 0 (Herbicidal rate of 5% or less (almost no effect)) | 0 (Herbicidal rate of 5% or less (almost no effect)) | 0 (Herbicidal rate of 5% or less (almost no effect)) | 4 (Herbicidal rate of 70% or more and less than 90%) | 0 (Herbicidal rate of 5% or less (almost no effect)) | 2 (Herbicidal rate of 20% or more and less than 40%) | 3 (Herbicidal rate of 40% or more and less than 70%) | 0 (Herbicidal rate of 5% or less (almost no effect)) | 2 (Herbicidal rate of 20% or more and less than 40%) | 4 (Herbicidal rate of 70% or more and less than 90%) | 0 (Herbicidal rate of 5% or less (almost no effect)) | 4 (Herbicidal rate of 70% or more and less than 90%) | 3 (Herbicidal rate of 40% or more and less than 70%) | 5 (Herbicidal rate of 90% or more (almost completely withered)) | – |
| CCCC(=O)Oc1c(C)nn(C)c(=O)c1-c1c(-c2ccc(OC)cc2)sc2cc(OCC)ccc12 [3-092] | 3 (Herbicidal rate of 40% or more and less than 70%) | 0 (Herbicidal rate of 5% or less (almost no effect)) | 0 (Herbicidal rate of 5% or less (almost no effect)) | 0 (Herbicidal rate of 5% or less (almost no effect)) | 0 (Herbicidal rate of 5% or less (almost no effect)) | 0 (Herbicidal rate of 5% or less (almost no effect)) | 0 (Herbicidal rate of 5% or less (almost no effect)) | 5 (Herbicidal rate of 90% or more (almost completely withered)) | 0 (Herbicidal rate of 5% or less (almost no effect)) | 3 (Herbicidal rate of 40% or more and less than 70%) | 0 (Herbicidal rate of 5% or less (almost no effect)) | 0 (Herbicidal rate of 5% or less (almost no effect)) | 0 (Herbicidal rate of 5% or less (almost no effect)) | 4 (Herbicidal rate of 70% or more and less than 90%) | 0 (Herbicidal rate of 5% or less (almost no effect)) | 5 (Herbicidal rate of 90% or more (almost completely withered)) | 0 (Herbicidal rate of 5% or less (almost no effect)) | 5 (Herbicidal rate of 90% or more (almost completely withered)) | – |
| CCOc1ccc2c(-c3c(O)c(C)nn(C)c3=O)c(-c3ccc(F)cc3OCC)sc2c1 [3-095] | 5 (Herbicidal rate of 90% or more (almost completely withered)) | 2 (Herbicidal rate of 20% or more and less than 40%) | 3 (Herbicidal rate of 40% or more and less than 70%) | 5 (Herbicidal rate of 90% or more (almost completely withered)) | 3 (Herbicidal rate of 40% or more and less than 70%) | 4 (Herbicidal rate of 70% or more and less than 90%) | 5 (Herbicidal rate of 90% or more (almost completely withered)) | 5 (Herbicidal rate of 90% or more (almost completely withered)) | 5 (Herbicidal rate of 90% or more (almost completely withered)) | 4 (Herbicidal rate of 70% or more and less than 90%) | 4 (Herbicidal rate of 70% or more and less than 90%) | 5 (Herbicidal rate of 90% or more (almost completely withered)) | 5 (Herbicidal rate of 90% or more (almost completely withered)) | 5 (Herbicidal rate of 90% or more (almost completely withered)) | 5 (Herbicidal rate of 90% or more (almost completely withered)) | 5 (Herbicidal rate of 90% or more (almost completely withered)) | 5 (Herbicidal rate of 90% or more (almost completely withered)) | 5 (Herbicidal rate of 90% or more (almost completely withered)) | – |
